Data as given in patent US4800161A (priority 1984, dated 1989).

Assays:
[1] = biological target: aldose-1-epimerase (mutarotase, EC 5.1.3.3) from Acinetobacter calcoaceticus (Acinetobacter calcoaceticus, UniProt P05149)
Procedure: Principle: [drawing 1] Mutarotase, glucose-dehydrogenase and NAD are caused to react with a freshly prepared solution of α-glucose, and the NADH2 is determined by measuring the extinction at 366 nm. The measurement of the acceleration of the formation of NADH2 by mutarotase (compared with a blank without mutarotase) allows the mutarotase activity in the solution used to be calculated.
As soon as the extinction is constant, the start is made with 0.10 ml of solution 4 in each case.
A fresh glucose solution is prepared for each measurement. It is absolutely necessary to adhere to the following procedure in order to allow for the existing mutarotation: a 150 ml beaker is filled with 100 ml of distilled water and the temperature is adjusted to 20° C. The beaker is evenly stirred, 30 mg of α-glucose are added, the stopwatch is started and the time is marked on the recorder chart. Mixing takes place for 30 seconds. Within the next 15 seconds, the glucose solution is pipetted into the cell, the cell content is thoroughly mixed and, after the expiration of these 15 seconds, the increase in extinction is recorded. The measurment is taken at 366 nm, layer thickness 1 cm, cell temperature 25° C.
For evaluation, a tangent is put to the linear part at the origin of the recording curve, and ΔE/minute is read off; subtraction of the blank from the analysis value gives a value of ΔΔE/minute, which is inserted into the following calculation equation:
Enzyme activity=ΔΔE/minute×4.09 U of mutarotase per ml of […]

[2] = biological target: mutarotase from bovine kidneys (Bos taurus, UniProt Q5EA79); settings: read-out: Michaelis constant (KM); glucose determination context
[3] = system: mutarotase from Aspergillus niger; settings: read-out: Michaelis constant (KM); Biochim. Biophys. Acta 662, 285 (1981); cited from earlier work

aldose-1-epimerase (mutarotase, EC 5.1.3.3) from Acinetobacter calcoaceticus, sequence (P05149 21-381): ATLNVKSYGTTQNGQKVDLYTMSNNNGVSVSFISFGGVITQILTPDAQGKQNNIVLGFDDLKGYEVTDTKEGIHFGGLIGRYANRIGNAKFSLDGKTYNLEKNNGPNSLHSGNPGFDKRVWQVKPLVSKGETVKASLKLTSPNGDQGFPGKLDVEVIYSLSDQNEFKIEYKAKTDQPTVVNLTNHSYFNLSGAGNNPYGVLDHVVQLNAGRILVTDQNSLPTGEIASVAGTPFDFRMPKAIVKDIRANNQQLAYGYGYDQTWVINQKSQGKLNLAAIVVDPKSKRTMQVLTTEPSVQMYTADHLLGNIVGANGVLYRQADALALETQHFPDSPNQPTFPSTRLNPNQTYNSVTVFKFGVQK
mutarotase from bovine kidneys, sequence (Q5EA79 whole entry): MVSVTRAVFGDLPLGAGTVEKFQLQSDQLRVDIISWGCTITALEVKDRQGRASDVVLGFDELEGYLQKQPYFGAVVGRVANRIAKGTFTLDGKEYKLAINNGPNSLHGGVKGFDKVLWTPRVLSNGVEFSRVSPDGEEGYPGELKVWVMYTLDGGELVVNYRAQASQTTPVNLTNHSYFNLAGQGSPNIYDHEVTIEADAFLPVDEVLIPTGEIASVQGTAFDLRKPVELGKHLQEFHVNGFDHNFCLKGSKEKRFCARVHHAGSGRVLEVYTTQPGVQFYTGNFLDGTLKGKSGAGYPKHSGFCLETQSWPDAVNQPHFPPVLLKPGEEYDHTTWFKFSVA

Substance	Michaelis constant for galactose compared with glucose [1]	Michaelis constant for galactose relative to that of the mutarotase from bovine kidneys [1] [times]	Km [2] [mM]	Km [3] [mM]	Km ([1]; read-out: Michaelis constant (KM) for glucose, mutarotase according to the invention) [mM]
galactose	same Michaelis constant	3			
glucose			18 to 20	50	6 to 8
